{"source": "ChEMBL document CHEMBL5532643", "about": "“Design and synthesis of etrasimod derivatives as potent antibacterial agents against Gram-positive bacteria” (Eur J Med Chem, 2024)", "key": {"Cell membrane [1]": {"system": "Cell membrane", "experiment": "Induction of cell membrane permeability in Staphylococcus aureus ATCC 25923 assessed as increase in fluorescence intensity at 4 times MIC incubated for 30 mins by PI staining based analysis", "assay_type": "cell membranes"}, "Staphylococcus aureus [2]": {"system": "Staphylococcus aureus", "experiment": "Antibacterial activity against Staphylococcus aureus ATCC 25923 assessed as reduction in bacterial growth incubated for 18 to 20 hrs by broth microdilution assay", "assay_type": "functional", "conditions": "time 18-20 hrs"}, "Staphylococcus aureus [3]": {"system": "Staphylococcus aureus", "experiment": "Antibacterial activity against Staphylococcus aureus ATCC 25923 assessed as inhibition of bacterial growth at 40 uM incubated for 18 to 24 hrs by broth microdilution assay relative to control", "assay_type": "functional", "conditions": "time 18-24 hrs"}, "[4]": {"system": "Staphylococcus epidermidis", "experiment": "Antibacterial activity against Staphylococcus epidermidis RP62A assessed as reduction in bacterial growth incubated for 18 to 20 hrs by broth microdilution assay", "assay_type": "functional", "conditions": "time 18-20 hrs"}, "Staphylococcus aureus [5]": {"system": "Staphylococcus aureus", "experiment": "Bactericidal activity against Staphylococcus aureus ATCC 25923 assessed as reduction in bacterial growth at 0.5 to 8 times MIC incubated for 24 hrs by time-kill assay", "assay_type": "functional"}, "Staphylococcus aureus [6]": {"system": "Staphylococcus aureus", "experiment": "Bactericidal activity against methicillin-resistant Staphylococcus aureus assessed as reduction in bacterial growth at 0.5 to 8 times MIC incubated for 24 hrs by time-kill assay", "assay_type": "functional"}, "Staphylococcus aureus [7]": {"system": "Staphylococcus aureus", "experiment": "Bactericidal activity against Staphylococcus aureus ATCC 25923 assessed as log reduction in colony forming units at 0.5 to 8 times MIC measured after 24 hrs by time kill-assay", "assay_type": "functional"}, "Cell membrane [8]": {"system": "Cell membrane", "experiment": "Induction of cytoplasmic membrane depolarization in Staphylococcus aureus ATCC 25923 assessed as increase in fluorescence intensity at 4 times MIC measured for 30 mins by DiSC3(5) dye based fluorescence method", "assay_type": "cell membranes"}, "Staphylococcus aureus [9]": {"system": "Staphylococcus aureus", "experiment": "Synergistic antibacterial activity against methicillin-resistant Staphylococcus aureus ATCC 43300 assessed as gentamicin MIC incubated for 18 to 20 hrs by checkboard assay", "assay_type": "functional", "conditions": "time 18-20 hrs"}, "Enterococcus faecalis [10]": {"system": "Enterococcus faecalis", "experiment": "Synergistic antibacterial activity against Enterococcus faecalis ATCC 29212 assessed as gentamicin MIC incubated for 18 to 20 hrs by checkboard assay", "assay_type": "functional", "conditions": "time 18-20 hrs"}, "Staphylococcus aureus [11]": {"system": "Staphylococcus aureus", "experiment": "Synergistic antibacterial activity against Staphylococcus aureus ATCC 25923 assessed as vancomycin MIC incubated for 18 to 20 hrs by checkboard assay", "assay_type": "functional", "conditions": "time 18-20 hrs"}, "Enterococcus faecalis [12]": {"system": "Enterococcus faecalis", "experiment": "Synergistic antibacterial activity against Enterococcus faecalis ATCC 29212 assessed as vancomycin MIC incubated for 18 to 20 hrs by checkboard assay", "assay_type": "functional", "conditions": "time 18-20 hrs"}, "Staphylococcus aureus [13]": {"system": "Staphylococcus aureus", "experiment": "Synergistic antibacterial activity against Staphylococcus aureus ATCC 25923 assessed as ciprofloxacin MIC incubated for 18 to 20 hrs by checkboard assay", "assay_type": "functional", "conditions": "time 18-20 hrs"}, "Staphylococcus aureus [14]": {"system": "Staphylococcus aureus", "experiment": "Synergistic antibacterial activity against methicillin-resistant Staphylococcus aureus ATCC 43300 assessed as ciprofloxacin MIC incubated for 18 to 20 hrs by checkboard assay", "assay_type": "functional", "conditions": "time 18-20 hrs"}, "Enterococcus faecalis [15]": {"system": "Enterococcus faecalis", "experiment": "Synergistic antibacterial activity against Enterococcus faecalis ATCC 29212 assessed as ciprofloxacin MIC incubated for 18 to 20 hrs by checkboard assay", "assay_type": "functional", "conditions": "time 18-20 hrs"}, "Staphylococcus aureus [16]": {"system": "Staphylococcus aureus", "experiment": "Synergistic antibacterial activity against Staphylococcus aureus ATCC 25923 assessed as linezolid MIC incubated for 18 to 20 hrs by checkboard assay", "assay_type": "functional", "conditions": "time 18-20 hrs"}, "Enterococcus faecalis [17]": {"system": "Enterococcus faecalis", "experiment": "Synergistic antibacterial activity against Enterococcus faecalis ATCC 29212 assessed as linezolid MIC incubated for 18 to 20 hrs by checkboard assay", "assay_type": "functional", "conditions": "time 18-20 hrs"}, "Enterococcus faecalis [18]": {"system": "Enterococcus faecalis", "experiment": "Synergistic antibacterial activity against Enterococcus faecalis ATCC 29212 incubated for 18 to 20 hrs in presence of vancomycin by checkboard assay", "assay_type": "functional", "conditions": "time 18-20 hrs"}, "Staphylococcus aureus [19]": {"system": "Staphylococcus aureus", "experiment": "Synergistic antibacterial activity against methicillin-resistant Staphylococcus aureus ATCC 43300 incubated for 18 to 20 hrs in presence of vancomycin by checkboard assay", "assay_type": "functional", "conditions": "time 18-20 hrs"}, "Staphylococcus aureus [20]": {"system": "Staphylococcus aureus", "experiment": "Synergistic antibacterial activity against Staphylococcus aureus ATCC 25923 incubated for 18 to 20 hrs in presence of gentamicin by checkboard assay", "assay_type": "functional", "conditions": "time 18-20 hrs"}, "Staphylococcus aureus [21]": {"system": "Staphylococcus aureus", "experiment": "Synergistic antibacterial activity against methicillin-resistant Staphylococcus aureus ATCC 43300 incubated for 18 to 20 hrs in presence of gentamicin by checkboard assay", "assay_type": "functional", "conditions": "time 18-20 hrs"}, "Enterococcus faecalis [22]": {"system": "Enterococcus faecalis", "experiment": "Synergistic antibacterial activity against Enterococcus faecalis ATCC 29212 incubated for 18 to 20 hrs in presence of gentamicin by checkboard assay", "assay_type": "functional", "conditions": "time 18-20 hrs"}, "Enterococcus faecalis [23]": {"system": "Enterococcus faecalis", "experiment": "Synergistic antibacterial activity against Enterococcus faecalis ATCC 29212 incubated for 18 to 20 hrs in presence of ciprofloxacin by checkboard assay", "assay_type": "functional", "conditions": "time 18-20 hrs"}, "Staphylococcus aureus [24]": {"system": "Staphylococcus aureus", "experiment": "Synergistic antibacterial activity against methicillin-resistant Staphylococcus aureus ATCC 43300 incubated for 18 to 20 hrs in presence of linezolid by checkboard assay", "assay_type": "functional", "conditions": "time 18-20 hrs"}, "Staphylococcus aureus [25]": {"system": "Staphylococcus aureus", "experiment": "Synergistic antibacterial activity against Staphylococcus aureus ATCC 25923 assessed as fractional inhibitory concentration index incubated for 18 to 20 hrs in presence of gentamicin by checkboard assay", "assay_type": "functional", "conditions": "time 18-20 hrs"}, "Staphylococcus aureus [26]": {"system": "Staphylococcus aureus", "experiment": "Synergistic antibacterial activity against methicillin-resistant Staphylococcus aureus ATCC 43300 assessed as fractional inhibitory concentration index incubated for 18 to 20 hrs in presence of gentamicin by checkboard assay", "assay_type": "functional", "conditions": "time 18-20 hrs"}, "Staphylococcus aureus [27]": {"system": "Staphylococcus aureus", "experiment": "Synergistic antibacterial activity against Staphylococcus aureus ATCC 25923 assessed as fractional inhibitory concentration index incubated for 18 to 20 hrs in presence of vancomycin by checkboard assay", "assay_type": "functional", "conditions": "time 18-20 hrs"}, "Staphylococcus aureus [28]": {"system": "Staphylococcus aureus", "experiment": "Synergistic antibacterial activity against methicillin-resistant Staphylococcus aureus ATCC 43300 assessed as fractional inhibitory concentration index incubated for 18 to 20 hrs in presence of vancomycin by checkboard assay", "assay_type": "functional", "conditions": "time 18-20 hrs"}, "Staphylococcus aureus [29]": {"system": "Staphylococcus aureus", "experiment": "Synergistic antibacterial activity against methicillin-resistant Staphylococcus aureus ATCC 43300 assessed as fractional inhibitory concentration index incubated for 18 to 20 hrs in presence of linezolid by checkboard assay", "assay_type": "functional", "conditions": "time 18-20 hrs"}, "[30]": {"experiment": "Cytotoxicity against human THP-1 cells assessed as reduction in cell viability incubated for 24 hrs by resazurin staining based analysis", "assay_type": "toxicity"}, "[31]": {"experiment": "Hemolytic activity in mouse RBC assessed as hemolysis at 250 uM incubated for 1 hr", "assay_type": "toxicity, cell-based, Erythrocyte", "conditions": "mouse red blood cells (erythrocytes), read-out: Activity"}, "Erythrocyte": {"system": "Erythrocyte", "experiment": "Hemolytic activity in mouse RBC assessed as hemolysis at 62.5 uM incubated for 1 hr", "assay_type": "toxicity, cell-based"}, "[32]": {"experiment": "Selectivity index, ratio of CC50 for cytotoxicity against human THP-1 cells assessed as reduction in cell viability to MIC for antibacterial activity against Staphylococcus aureus assessed as reduction in bacterial growth", "assay_type": "toxicity, cell-based", "conditions": "read-out: Selectivity Index"}, "[33]": {"experiment": "Selectivity index, ratio of CC50 for cytotoxicity against human THP-1 cells assessed as reduction in cell viability to MIC for antibacterial activity against methicillin-resistant Staphylococcus epidermidis assessed as reduction in bacterial growth", "assay_type": "toxicity, cell-based", "conditions": "read-out: Selectivity Index"}, "[34]": {"experiment": "Selectivity index, ratio of CC50 for cytotoxicity against human THP-1 cells assessed as reduction in cell viability to MIC for antibacterial activity against methicillin-resistant Enterococcus faecalis assessed as reduction in bacterial growth", "assay_type": "toxicity, cell-based", "conditions": "read-out: Selectivity Index"}, "[35]": {"experiment": "Selectivity index, ratio of CC50 for cytotoxicity against human THP-1 cells assessed as reduction in cell viability to MIC for antibacterial activity against methicillin-resistant Enterococcus faecium assessed as reduction in bacterial growth", "assay_type": "toxicity, cell-based", "conditions": "read-out: Selectivity Index"}, "[36]": {"experiment": "Toxicity in Caenorhabditis elegans AU37 assessed as worms survival at 10 uM measured after 72 hrs"}, "Staphylococcus aureus [37]": {"system": "Staphylococcus aureus", "experiment": "Antimicrobial activity against Staphylococcus aureus ATCC 25923 infected in Caenorhabditis elegans AU37 assessed as reduction in bacterial burden at 20 uM incubated for 18 hrs", "assay_type": "functional", "set-up": "scale not given: the % may be the effect or the level left"}}, "note": "Values joined by “and” are separate entries in the source; they are usually repeats but may differ in a detail not shown here. Equal entries are not always repeated. Active and inactive are the calls of the source. The rule behind the calls is not given here.", "data": [{"smiles": "O=C(O)c1cc2cc(OCc3ccc(C4CCCCC4)c(C(F)(F)F)c3)ccc2[nH]1", "values": [{"measurement": "Activity", "setting": "Cell membrane [1]", "result": "inactive"}, {"measurement": "MIC", "setting": "Staphylococcus aureus [2]", "result": "5 µM and 2.1 µg/mL"}, {"measurement": "inhibition at 40 µM", "setting": "Staphylococcus aureus [3]", "result": "≤ 90", "unit": "%"}, {"measurement": "MIC", "setting": "[4]", "result": 2.5, "unit": "µM"}, {"measurement": "MBC", "setting": "Staphylococcus aureus [5]", "result": 5, "unit": "µM"}, {"measurement": "MBC", "setting": "Staphylococcus aureus [6]", "result": 5, "unit": "µM"}, {"measurement": "log(activity)", "setting": "Staphylococcus aureus [7]", "result": ">5"}, {"measurement": "Activity", "setting": "Cell membrane [8]", "result": "inactive"}, {"measurement": "MIC", "setting": "Staphylococcus aureus [9]", "result": 32, "unit": "mg/L"}, {"measurement": "MIC", "setting": "Enterococcus faecalis [10]", "result": 1, "unit": "mg/L"}, {"measurement": "MIC", "setting": "Staphylococcus aureus [11]", "result": 0.625, "unit": "µM"}, {"measurement": "MIC", "setting": "Enterococcus faecalis [12]", "result": 2.5, "unit": "µM"}, {"measurement": "MIC", "setting": "Staphylococcus aureus [13]", "result": 0.312, "unit": "µM"}, {"measurement": "MIC", "setting": "Staphylococcus aureus [14]", "result": 1.25, "unit": "µM"}, {"measurement": "MIC", "setting": "Enterococcus faecalis [15]", "result": 1.25, "unit": "µM"}, {"measurement": "MIC", "setting": "Staphylococcus aureus [16]", "result": 5, "unit": "µM"}, {"measurement": "MIC", "setting": "Enterococcus faecalis [17]", "result": 10, "unit": "µM"}, {"measurement": "MIC", "setting": "Enterococcus faecalis [18]", "result": 5, "unit": "µM"}, {"measurement": "MIC", "setting": "Staphylococcus aureus [19]", "result": 2.5, "unit": "µM"}, {"measurement": "MIC", "setting": "Staphylococcus aureus [20]", "result": 1.25, "unit": "µM"}, {"measurement": "MIC", "setting": "Staphylococcus aureus [21]", "result": 0.625, "unit": "µM"}, {"measurement": "MIC", "setting": "Enterococcus faecalis [22]", "result": 1.25, "unit": "µM"}, {"measurement": "MIC", "setting": "Enterococcus faecalis [23]", "result": 1.25, "unit": "µM"}, {"measurement": "MIC", "setting": "Staphylococcus aureus [24]", "result": 1.25, "unit": "µM"}, {"measurement": "fractional inhibitory concentration index (FICI)", "setting": "Staphylococcus aureus [25]", "result": 0.5}, {"measurement": "fractional inhibitory concentration index (FICI)", "setting": "Staphylococcus aureus [26]", "result": "<=0.5"}, {"measurement": "fractional inhibitory concentration index (FICI)", "setting": "Staphylococcus aureus [27]", "result": 0.75}, {"measurement": "fractional inhibitory concentration index (FICI)", "setting": "Staphylococcus aureus [28]", "result": 2}, {"measurement": "fractional inhibitory concentration index (FICI)", "setting": "Staphylococcus aureus [29]", "result": 1}, {"measurement": "CC50 at 24 h", "setting": "[30]", "result": "> 100", "unit": "µM"}, {"measurement": "hemolysis at 1 h, 250 µM", "setting": "[31]", "result": 100, "unit": "%"}, {"measurement": "Activity", "setting": "Erythrocyte", "result": "Non-Toxic"}, {"measurement": "selectivity ratio", "setting": "[32]", "result": "> 12"}, {"measurement": "selectivity ratio", "setting": "[33]", "result": "> 12"}, {"measurement": "selectivity ratio", "setting": "[34]", "result": "> 12"}, {"measurement": "selectivity ratio", "setting": "[35]", "result": "> 12"}, {"measurement": "Activity", "setting": "[36]", "result": "Non-Toxic"}, {"measurement": "Activity", "setting": "Staphylococcus aureus [37]", "result": ">85", "unit": "%"}]}]}
